According to PMC9508125, “The evolutionary advantage of an aromatic clamp in plant family 3 glycoside exo-hydrolases” (Nature Communications, 2022):
Numbering of substitutions follows the chain as printed.

What was measured:
Test in all cases: Steady-state apparent kinetic constants with substrates
Format in all cases: biochemical
Details in all cases: substance is the substrate
[1] = target: T1, HvExoI W286F mutant (Hordeum vulgare, UniProt Q9XEI3, W311F)
T1 sequence (Q9XEI3 26-630 W311F): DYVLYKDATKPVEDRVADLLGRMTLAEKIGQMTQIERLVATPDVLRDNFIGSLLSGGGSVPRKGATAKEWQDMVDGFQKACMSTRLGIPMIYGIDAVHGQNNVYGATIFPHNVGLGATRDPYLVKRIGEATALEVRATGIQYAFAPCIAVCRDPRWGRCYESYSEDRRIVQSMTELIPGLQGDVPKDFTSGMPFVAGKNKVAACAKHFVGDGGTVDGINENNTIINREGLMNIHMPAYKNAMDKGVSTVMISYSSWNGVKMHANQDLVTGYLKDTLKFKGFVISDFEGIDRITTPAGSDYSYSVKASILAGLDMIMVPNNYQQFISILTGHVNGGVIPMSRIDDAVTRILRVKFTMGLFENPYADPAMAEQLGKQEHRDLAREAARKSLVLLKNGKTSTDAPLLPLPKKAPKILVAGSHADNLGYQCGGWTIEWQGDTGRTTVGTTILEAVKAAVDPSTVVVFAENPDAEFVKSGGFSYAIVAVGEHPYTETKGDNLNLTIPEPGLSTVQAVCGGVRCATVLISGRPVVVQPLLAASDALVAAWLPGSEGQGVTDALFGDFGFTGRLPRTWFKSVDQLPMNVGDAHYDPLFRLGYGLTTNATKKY
Method: (§1) Dependency of activities of WT and mutant HvExoI on pH (McIlvaine buffers in the pH range of 3.5–8.5 at 30 °C) and temperature (100 mM sodium acetate buffer, pH 5.25, temperature range 0–80 °C, 15 min incubations) were determined using 0.2% (w/v) 4NP-Glc[21],[59]. Relative rates of hydrolysis of β-linked poly-, oligosaccharides, and aryl-glucosides were determined using near-homogenous HvExoI at 50 pmoles. […] Kinetic parameters were calculated from the analyses of Michaelis-Menten plots with Grafit 7.0.3[62] and processed by a proportional weighted fit, using nonlinear regression. The relative rates of hydrolysis, kinetic, and inhibition data were rounded to one or two decimal points (Supplementary Tables 2–4).

[2] = target: T2, HvExoI W434Y mutant (Hordeum vulgare, UniProt Q9XEI3, W459Y)
T2 sequence (Q9XEI3 26-630 W459Y): T1 sequence (Q9XEI3 26-630 W311F) with F286W, W434Y
Method: as §1

[3] = target: T3, HvExoI W434H mutant (Hordeum vulgare, UniProt Q9XEI3, W459H)
T3 sequence (Q9XEI3 26-630 W459H): T1 sequence (Q9XEI3 26-630 W311F) with F286W, W434H
Method: as §1

Substance laminarin has a Km [1] of 200 ± 10 µM, a kcat [1] of 4.5 ± 0.3 s⁻¹ and a Km [2] of 100 ± 10 µM. It also gave a kcat [2] of 0.8 ± 0.1 s⁻¹, a Km [3] of 300 ± 20 µM and a kcat [3] of 8.5 ± 0.9 s⁻¹.
